Entries after “also recorded” stand apart in the source; their conditions may differ.
Legend:
Assay type in all cases: in vivo, mouse
arteries of KO mice = assay: Morphological analysis of arteries after chronic treatment; settings: 20 days treatment
Text: A 129S7AB2.2 genomic BAC clone (bMQ-446B20; Sanger) was used to generate the targeting vector. Recombination in SW102 cell was employed to replace the miR-143 to miR-145 genomic region by a galK cassette (45) that was amplified by the primers flanking premiR-143 to pre-miR-145 ([…] GCggcgcgcctcagcactgtcctgctcctt; […] ACggcgcgcctgttgacaattaatcatcggca). The genomic sequence was inserted via gap repair into a pKO targeting vector containing a DTA expression cassette and 450 bp homology arms for BAC recombination resulting in a vector containing 6.5 kb of sequence 5′ of miR-143 and 5.5 kb 3′ of miR-145 from genomic sequence […] to […]. The AscI restriction sites flanking the galK cassette were used to replace the galK by a floxed IRESIacZ-NeoR cassette. […]
Arteries were perfused using a PBS solution via the heart apex at 100 mmHg pressure for 2 min, followed by perfusion with 4% paraformaldehyde in PBS. […] Ultra-thin sections were stained with uranyl acetate and lead citrate, viewed and photographically recorded using a Philips CM 10 electron microscope. The phenotype of VSMC was determined ultrastructurally following criteria as previously reported (47). […] The phenotype of VSMC in each mouse was quantified in at least 300 cells per 3 arterial segments (minimum 100 μm) using consecutive transversal sections. […]

[1] = test system: miR-143/145-deficient mice; assay: Hemodynamic measurements by aortic catheterization under isoflurane, acute ACE inhibition; settings: miR-143/145 KO animals compared with WT, isoflurane anaesthesia, captopril via jugular vein
Protocol: Aortic catheterization was performed using a 1.4 F pressure-volume catheter. Data were recorded and analyzed with Chart v5.4 as described before (51). Mice were anaesthetized with isoflurane (2 vol % in O2) and their body temperature was kept at 37° C. as monitored by a rectal probe. Captopril (30 mg/kg body weight, 50 μl) and angiotensin II (5 to 50000 ng/kg body weight, 50 μl) were applied via the left jugular vein. For measurements of conscious, unrestrained mice, hemodynamic parameters were recorded by telemetry (DSI, Transoma Medical, USA, TA11PA-C10 transmitters) after a recovery period from surgery of more than 7 days. Recordings were obtained every 2 minutes for 20 seconds at a sampling frequency of 1000 Hz and were analyzed for day (07:00-19:00) and nighttime (19:00-07:00) periods, respectively, to evaluate circadian variation in hemodynamics.

[2] = test system: femoral arteries from KO mice; assay: Myograph: contractility of isolated femoral artery rings from mice chronically treated with captopril
Text: A 129S7AB2.2 genomic BAC clone (bMQ-446B20; Sanger) was used to generate the targeting vector. Recombination in SW102 cell was employed to replace the miR-143 to miR-145 genomic region by a galK cassette (45) that was amplified by the primers flanking premiR-143 to pre-miR-145 ([…] GCggcgcgcctcagcactgtcctgctcctt; […] ACggcgcgcctgttgacaattaatcatcggca). The genomic sequence was inserted via gap repair into a pKO targeting vector containing a DTA expression cassette and 450 bp homology arms for BAC recombination resulting in a vector containing 6.5 kb of sequence 5′ of miR-143 and 5.5 kb 3′ of miR-145 from genomic sequence […] to […]. The AscI restriction sites flanking the galK cassette were used to replace the galK by a floxed IRESIacZ-NeoR cassette. The vector was electroporated into MPI II ES cells (46) and recombinant clones were identified. Recombinant ES cells were injected into blastocysts and transferred to pseudopregnant mice. Chimeric animals were backcrossed to C57BL/6 mice. Heterozygous animals were used to obtain WT and KO littermates. ES cells and mice were genotyped using an EcoRV restriction digest and a 5′ outside probe amplified from genomic DNA using oligonucleotides ([…]; […]). […] The experiments were performed in accordance with German legislation on protection of animals and were approved by the local governmental animal care committee (Regierungspraesidium Darmstadt).
Isolated segments of femoral and mesenteric arteries were examined in an isometric microvessel myograph as described previously (52). Mounted vessels were stimulated with 80 mM K+, 30 nM angiotensin II or increasing concentrations of phenylephrine (100 nM to 10 μM). The pCa-force relationships (13, 14) were obtained in permeabilized mouse femoral artery segments. In brief, arteries were permeabilized for 30 minutes using 0.5% Triton X-100 in relaxation solution. The latter consisted of (in mM): EGTA 1, Pipes 30, Na2ATP 5.16, MgCl2 7.31, sodium creatine phosphate 10 and potassium gluconate 74.1. For contraction curves the buffer was supplemented with 160 U/ml calmodulin and 100 U/ml creatine phosphokinase. The concentration of free Ca2+ ions was calculated as described previously (53).

[3] = KO femoral arteries, chronic captopril
[4] = mutant (KO) femoral arteries, captopril treatment vs. KO untreated

| Structure (SMILES) | significant morphological changes in arteries (arteries of KO mice) | diastolic pressure after acute inhibition of ACE [1] | angiotensin II-induced contraction after ACE inhibition [2, 3] | maximal force of contraction generated by K+-induced depolarization [2, 3] | phenylephrine-effects after ACE inhibition [2, 3] | Maximal angiotensin II-induced force of contraction ([2]; captopril-treated WT vessels, femoral artery, 20 day oral treatment) [mN] | Maximal angiotensin II-induced force of contraction ([2]; femoral arteries from miR-143/145 KO mice after captopril treatment, 20 days oral) [mN] | angiotensin II induced contractile responses [2, 4] | contractile response to phenylephrine [2, 4] |
| --- | --- | --- | --- | --- | --- | --- | --- | --- | --- |
| CCCCc1nc(Cl)c(CO)n1Cc1ccc(-c2ccccc2-c2nn[nH]n2)cc1 [losartan] | not observed |  |  |  |  |  |  |  |  |
| C[C@H](CS)C(=O)N1CCC[C@H]1C(=O)O [captopril] | not observed | stronger decrease; also recorded: pronounced reduction | 9 % of K+ contraction | No change; also recorded: did not improve | 46 % of the K+ contraction | 3.4±0.6 | 0.30±0.05 | significantly improved; also recorded: markedly improved | improved responses; also recorded: markedly improved |

Source: patent US20120190580A1, “TREATMENT OF PATIENTS AFTER STENT IMPLANTATION OR BALLOON DILATATION AND DRUG ELUTING STENTS” (MAX-PLANCK-GESELLSCHAFT ZUR FORDERUNG DER WISSENSCHAFTEN …, priority 2009, published 2012)
